From patent US20190092814A1, “Peptide” (priority 2017, published 2019)
Where no end group is shown, it is not given here.

Assays:
HS-rats = assay type: in vivo
Procedure: This study was carried out on 46 male Wistar rats (Charles River Ltd, Margate, UK) weighing 230-350 g receiving a standard diet and water ad libitum. Hemorrhagic shock and quantification of organ injury and dysfunction were performed as described previously in Sordi R et al (2017) Ann Surg, 265(2):408-417. Rats were anesthetized by sodium thiopentone (120 mg/kg i.p. for induction, followed by 10 mg/kg i.v. for maintenance). Cannulation of the trachea, femoral artery (for measuring blood pressure), and carotid arteries (for blood withdrawal), jugular vein (for drug administration), and bladder (for collecting urine) were performed. Blood (up to 1 mL/min) was withdrawn via the cannula inserted in the carotid artery in order to achieve a fall in mean arterial pressure (MAP) to 27 to 32 mmHg. Thereafter, MAP was maintained at this level for a period of 90 min either by further withdrawal of blood during the compensation phase or administration shed blood during the decompensation phase. At 90 min after initiation of hemorrhage (or when 25% of the shed blood had to be re-injected to sustain MAP at 27 to 32 mmHg), animals were resuscitated with the remaining shed blood (mixed with 100 IU/mL heparinized saline) (over a period of 5 min) plus a volume of Ringer's lactate identical to the volume of blood spent during decompensation. During the last 3 h of resuscitation, urine was obtained for the estimation of creatinine clearance. Then, blood samples were collected via the carotid artery for measurement of lactate (Accutrend Plus Meter, Roche Diagnostics, West Sussex, UK) and organ injury/dysfunction parameters. Under deep anesthesia, the heart was removed to terminate the experiment. Blood samples were centrifuged to separate serum, which was used for the determination of urea, creatinine, aspartate aminotransferase (AST), alanine aminotransferase (ALT), lipase, amylase and creatine kinase (CK) by an external contract research facility (IDEXX Laboratories Ltd, West Yorkshire, UK) in a blinded fashion. In addition, lung, kidney and liver samples were taken and stored at −80° C. for further analysis. Sham-operated rats were used as control and underwent identical surgical procedures, but without hemorrhage or resuscitation. Blood pressures during the experiment were measured by Powerlab®, and recorded and analyzed by Labchart® (AD instruments Ltd, Dunedin, New Zealand).
The following groups were studied: Sham+vehicle (n=11), sham+Pep19-4LF (n=6), HS+vehicle (n=12), HS+Pep19-4LF-LD (n=8), HS+Pep19-4LF-HD (n=8), HS+Pep19-2.5-HD (n=8). Rats were administered vehicle (saline 1.5 ml/kg/h) or Pep19-4LF (low dose (LD)=66 μg/kg×h; high dose (HD)=333 μg/kg×h) or Pep19-2.5 (high dose (HD)=333 μg/kg×h) continuously for 4 h after resuscitation using infusion pump for rodents (PHD2000, 70-2000; Harvard apparatus Massachusetts, U.S). 11 rats were excluded from data analysis due to surgical/technical issues (n=5) prior to onset of HS and death during resuscitation (n=6). The doses of Pep19-4LF and Pep19-2.5 used in this study were based on efficacy seen in previous in vitro and in vivo studies (Schuerholz T et al (2013) Crit Care, 17(1):R3; Tejada G Md et al (2015) Sci Rep, 5:14292; Martin L et al (2015) PLoS One, 10(5):e0127584; Martin L et al (2015) PLoS One, 10(11):e0143583).

[1] = Tejada G Md et al (2015); cited from earlier work
human red blood cells = assay: Hemolysis assay; assay type: cell-based; settings: concentrations of up to 100 μg/ml, 37° C., 30 min
Procedure: Red blood cells (RBC) were obtained from citrated human blood by centrifugation (1,500×g; 10 min), washed three times with isotonic 20 mM phosphate-NaCl buffer (pH 7.4), and suspended in the same buffer at a concentration equivalent to 5% of the normal hematocrit. Forty-microliter aliquots of this RBC suspension were added to 0.96 ml of Pep19-4LF dilutions prepared in the same isotonic phosphate solution, incubated at 37° C. for 30 min, and centrifuged (1,500×g, 10 min). The supernatants were analyzed spectrophotometrically (with absorbance at 543 nm) for hemoglobin, and results were expressed as the percentage released with respect to sonicated controls (100% release) or controls processed without peptide (0% release).

[2] = therapeutic doses; cited from earlier work
[3] = HS-rats, high dose 333 μg/kg×h i.v., 4 h after HS, vs vehicle

Row | Substance | liver injury caused by HS (HS-rats; HS-rats) | pancreatic injury caused by HS (HS-rats; HS-rats) | renal dysfunction caused by HS (HS-rats; HS-rats) | decline in MAP during the resuscitation period (HS-rats; HS-rats, high dose 333 μg/kg×h i.v. continuously for 4 h after resuscitation, vs HS+vehicle) | organ injury and dysfunction caused by HS (HS-rats; [3]) | rise in lactate caused by HS (HS-rats; [3]) | effects of LPS and lipoproteins [1] | MAP in sham-operated rats (HS-rats; sham-operated rats, high dose 333 μg/kg×h) | hemolysis (hemoglobin release) (human red blood cells) | toxicity limiting therapeutic use in man [2]
1 | GCKKYRRFRWKFKGKFWFWG (20-amino acid peptide, Pep19-2.5) [20-mer linear synthetic antimicrobial peptide based on Limulus anti-LPS factor] | significantly attenuated | significantly attenuated | significantly attenuated | significantly attenuated | significantly attenuated | significantly attenuated | neutralize | – | – | –
2 | GKKYRRFRWKFKGKLFLFG-NH2 [Pep19-4LF, GKKYRRFRWKFKGKLFLFG] | – | – | – | – | – | – | – | had no effect | no considerable degree of hemolysis | –
3 | LL-37: cathelicidin-derived human AMP (host-defence/antimicrobial peptide) [reference compound] | – | – | – | – | – | – | neutralize | – | – | systemic toxicity
